According to ChEMBL document CHEMBL4041528, “Natural NO inhibitors from the leaves of Callicarpa kwangtungensis: Structures, activities, and interactions with iNOS” (Bioorg Med Chem Lett, 2017):

What was measured:
BV-2 [1] = assay: Inhibition of LPS-induced NO production in mouse BV2 cells after 20 hrs by Griess assay; format: functional, cell-based; settings: BV-2, 20 h
BV-2 [2] = assay: Cytotoxicity against mouse BV2 cells NO inhibitory IC50 by MTT assay; format: cell-based

## CC(C)[C@]12CC[C@@]34O[C@@]3(CC[C@H]3[C@](C)(C(=O)O)CCC[C@@]34C)[C@H]1O2
BV-2 [1]
  IC50: > 81 µM
BV-2 [2]
  Activity: Non-Toxic

## CC(C)[C@@]12C=C3[C@H](O)C[C@H]4[C@](C)(C(=O)O)CCC[C@]4(C)[C@]3(CC1)OO2
BV-2 [1]
  IC50: > 81 µM
BV-2 [2]
  Activity: Non-Toxic

## C=C1CC[C@H](O)/C(C)=C\C[C@@H]2[C@@H]1CC2(C)C
BV-2 [1]
  IC50: 13.6 µM
BV-2 [2]
  Activity: Non-Toxic

## C=C(C)c1ccc2c(c1)CC[C@H]1[C@](C)(C(=O)O)CCC[C@]1(C)O2
BV-2 [1]
  IC50: 25.5 µM
BV-2 [2]
  Activity: Non-Toxic

## CC(C)[C@]12CC[C@]3(OO1)C(=CC[C@H]1[C@](C)(C(=O)O)CCC[C@@]13C)[C@@H]2O
BV-2 [1]
  IC50: 26.7 µM
BV-2 [2]
  Activity: Non-Toxic

## C=C(C)c1ccc2c(c1)CC[C@H]1[C@](C)(CO)CCC[C@]21C
BV-2 [1]
  IC50: 15.3 µM
BV-2 [2]
  Activity: Non-Toxic

## CO[C@@H]1C[C@H]2[C@](C)(C(=O)O)CCC[C@]2(C)[C@]23CC[C@](C(C)C)(C=C12)OO3
BV-2 [1]
  IC50: 23.7 µM
BV-2 [2]
  Activity: Non-Toxic

## C=C1CC[C@H](O)[C@@]2(C)O[C@H]2C[C@@H]2[C@@H]1CC2(C)C
BV-2 [1]
  IC50: 42.6 µM
BV-2 [2]
  Activity: Non-Toxic

## CC1(C)C[C@H](O)[C@]23CC[C@@H](O)[C@](C)(CC[C@@H]12)C3
BV-2 [1]
  IC50: 62.2 µM
BV-2 [2]
  Activity: Non-Toxic

## CC(C)[C@]12C=C3CC[C@H]4[C@](C)(C(=O)O)CCC[C@]4(C)[C@@]3(CC1)OO2
BV-2 [1]
  IC50: 34.7 µM
BV-2 [2]
  Activity: Non-Toxic

## CC(C)[C@@]12C=C3CC[C@H]4[C@](C)(C(=O)O)CCC[C@]4(C)[C@]3(CC1)OO2
BV-2 [1]
  IC50: 52.4 µM
BV-2 [2]
  Activity: Non-Toxic

## CC(C)c1ccc2c(c1)[C@@H](O)C[C@H]1[C@](C)(C(=O)O)CCC[C@]21C
BV-2 [1]
  IC50: 17.9 µM
BV-2 [2]
  Activity: Non-Toxic

## CC1(C)C[C@@H]2C(=O)CC[C@H]3O[C@]3(C)CC[C@H]21 [KOBUSONE]
BV-2 [1]
  IC50: > 81 µM
BV-2 [2]
  Activity: Non-Toxic
